For 24 compounds, IC50, EC50 and fold induction results are on record in patent US20060276464A1, “Diarylsulfone sulfonamides and use thereof” (Wyeth, priority 2005, published 2006).

The target in experiment [1] is T1, SFRP-1 (Homo sapiens, UniProt Q8N474).
T1 sequence (Q8N474 32-314): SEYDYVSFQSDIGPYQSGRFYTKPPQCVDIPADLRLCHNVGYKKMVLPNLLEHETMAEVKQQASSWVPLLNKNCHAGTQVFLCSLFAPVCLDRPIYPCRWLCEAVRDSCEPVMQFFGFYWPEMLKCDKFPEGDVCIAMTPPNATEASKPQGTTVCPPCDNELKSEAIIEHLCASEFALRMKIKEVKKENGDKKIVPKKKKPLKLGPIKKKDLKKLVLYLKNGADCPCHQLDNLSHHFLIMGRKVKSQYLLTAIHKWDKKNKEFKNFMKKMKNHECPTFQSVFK
Description: Fluorescence polarization binding assay (competitive displacement of a probe compound from SFRP-1).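 Also: test compound competes with a fluorescent probe held by SFRP-1, seen as a drop in probe anisotropy after incubation in darkness, with anisotropy as function of rising compound dose.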 The settings on record: fluorescence anisotropy, 45 nM SFRP-1, 20 nM probe. (Polarisation of emitted light reports the rotation of a fluorescent probe.)

For experiment [2], the target named is T1, SFRP-1. Nature of the experiment: Cell-based assay for in vitro measurement of SFRP-1/SARP2 antagonist activity (U2OS cells co-transfected with 16x TCF-tk-Luciferase reporter, Wnt and hSFRP-1).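 As to all read-outs here: U2OS cells co-transfected with a TCF-tk luciferase reporter, a Wnt vector, hSFRP-1 or empty vector and CMV-βgal, luciferase luminescence read in cell lysates alongside βgal activity.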 The settings on record: for fold induction at 10 µM: U2OS, read-out: Fold Induction with SFRP-1, U2OS cells, single dose 10 μM, luciferase reporter, fold induction over SFRP-1 control. On the technique in general: In a reporter assay the amount or activity of a reporter protein is the signal.

In the case of `CN(CCNS(=O)(=O)c1cc(S(=O)(=O)c2ccccc2)ccc1C(F)(F)F)C(=O)CCC(=O)O` [Example 897, 4-{methyl[2-({[5-(phenylsulfonyl)-2-(trifluoromethyl)phenyl]sulfonyl}amino)ethyl]amino}-4-oxobutanoic acid], the IC50 (usually the concentration at which inhibition is half-maximal) at SFRP-1 [1] amounted to 500 nM. Further, on SFRP-1 [2], it took 1360 nM to reach a half-maximal effect (EC50) and the fold induction at 10 µM was 2.7.

As for `CN(CCNS(=O)(=O)c1cc(S(=O)(=O)c2ccccc2)ccc1C(F)(F)F)C(=O)N1CCNCC1` [Example 898, N-methyl-N-[2-({[5-(phenylsulfonyl)-2-(trifluoromethyl)phenyl]sulfonyl}amino)ethyl]piperazine-1-carboxamide], the IC50 on SFRP-1 [1] came out at 1000 nM. Also, on SFRP-1 [2], the concentration for a half-maximal effect (EC50) (usually the concentration giving half of the maximal effect) stood at 1930 nM and the fold induction at 10 µM was found to be 3.1.

`O=S(=O)(NCC1CCNCC1)c1cc(S(=O)(=O)c2ccccc2)ccc1C(F)(F)F` [Example 899, 5-(phenylsulfonyl)-N-(piperidin-4-ylmethyl)-2-(trifluoromethyl)benzenesulfonamide] showed an IC50 on SFRP-1 [1] of 300 nM. On SFRP-1 [2], it took 894 nM to reach a half-maximal effect (EC50) and the fold induction at 10 µM amounted to 4.2.

Turning to `O=S(=O)(NC1Cc2ccccc2C1O)c1cc(S(=O)(=O)c2ccccc2)ccc1C(F)(F)F` (stereo not shown) [Example 900, N-(1-hydroxy-2,3-dihydro-1H-inden-2-yl)-5-(phenylsulfonyl)-2-(trifluoromethyl)benzenesulfonamide], the IC50 on SFRP-1 [1] amounted to 80 nM. Moreover, on SFRP-1 [2], the fold induction at 10 µM was 4.1.

In the case of `CC(C)(C)OC(=O)N[C@H]1CC[C@H](NS(=O)(=O)c2cc(S(=O)(=O)c3ccccc3)ccc2C(F)(F)F)CC1` [Example 901, tert-butyl [trans-4-({[5-(phenylsulfonyl)-2-(trifluoromethyl)phenyl]sulfonyl}amino)cyclohexyl]carbamate], the 50% inhibitory concentration (IC50) at SFRP-1 [1] worked out at 450 nM. At SFRP-1 [2], the EC50 came out at 224 nM and the fold induction at 10 µM was 3.4.

`O=C(O)CCC(=O)N1CCC(CNS(=O)(=O)c2cc(S(=O)(=O)c3ccccc3)ccc2C(F)(F)F)CC1` [Example 902, 4-oxo-4-{4-[({[5-(phenylsulfonyl)-2-(trifluoromethyl)phenyl]sulfonyl}amino)methyl]piperidin-1-yl}butanoic acid] had an IC50 at SFRP-1 [1] of 180 nM. Also, at SFRP-1 [2], the EC50 stood at 636 nM and the fold induction at 10 µM turned out to be 3.

`O=C(O)CCCC(=O)N1CCC(CNS(=O)(=O)c2cc(S(=O)(=O)c3ccccc3)ccc2C(F)(F)F)CC1` [Example 903, 5-oxo-5-{4-[({[5-(phenylsulfonyl)-2-(trifluoromethyl)phenyl]sulfonyl}amino)methyl]piperidin-1-yl}pentanoic acid] yielded an IC50 on SFRP-1 [1] of 70 nM. Besides, on SFRP-1 [2], the concentration for a half-maximal effect (EC50) was 795 nM and the fold induction at 10 µM amounted to 3.5.

`O=C(O)c1cccc(S(=O)(=O)N2CCC(CNS(=O)(=O)c3cc(S(=O)(=O)c4ccccc4)ccc3C(F)(F)F)CC2)c1` [Example 904, 3-({4-[({[5-(phenylsulfonyl)-2-(trifluoromethyl)phenyl]sulfonyl}amino)methyl]piperidin-1-yl}sulfonyl)benzoic acid] showed an IC50 on SFRP-1 [1] of 60 nM. At SFRP-1 [2], a half-maximal response (EC50) required 700 nM and the fold induction at 10 µM came out at 3.5.

As to `CN(CCO)CCNS(=O)(=O)c1cc(S(=O)(=O)c2ccccc2)ccc1C(F)(F)F` [Example 905, N-{2-[(2-hydroxyethyl)(methyl)amino]ethyl}-5-(phenylsulfonyl)-2-(trifluoromethyl)benzenesulfonamide], the IC50 at SFRP-1 [1] was 2600 nM. Also, at SFRP-1 [2], it took 3660 nM to reach a half-maximal effect (EC50) and the fold induction at 10 µM is 1.5.

On SFRP-1 [1], `COC(=O)CN(C)CCNS(=O)(=O)c1cc(S(=O)(=O)c2ccccc2)ccc1C(F)(F)F` [Example 906, methyl N-methyl-N-[2-({[5-(phenylsulfonyl)-2-(trifluoromethyl)phenyl]sulfonyl}amino)ethyl]glycinate] came in with an IC50 of 900 nM. At SFRP-1 [2], the EC50 was determined as 1340 nM and the fold induction at 10 µM came to 2.9.

The compound `CCOC(=O)CCN(C)CCNS(=O)(=O)c1cc(S(=O)(=O)c2ccccc2)ccc1C(F)(F)F` [Example 907, ethyl N-methyl-N-[2-({[5-(phenylsulfonyl)-2-(trifluoromethyl)phenyl]sulfonyl}amino)ethyl]-β-alaninate] had an IC50 at SFRP-1 [1] of 900 nM. Further, the fold induction at 10 µM on SFRP-1 [2] worked out at 2.2.

In turn, `CCc1ccc(S(=O)(=O)c2ccccc2)cc1S(=O)(=O)NC1CCN(C(=O)OC(C)(C)C)CC1` [Example 909, tert-butyl 4-({[2-ethyl-5-(phenylsulfonyl)phenyl]sulfonyl}amino)piperidine-1-carboxylate] returned an IC50 at SFRP-1 [1] of 1000 nM. Moreover, at SFRP-1 [2], the midpoint of the response, the EC50, lay at 2580 nM and the fold induction at 10 µM worked out at 2.3.

The compound `Cc1cc(C)c(S(=O)(=O)c2ccccc2)cc1S(=O)(=O)NC1CCN(C(=O)OC(C)(C)C)CC1` [Example 911, tert-butyl 4-({[2,4-dimethyl-5-(phenylsulfonyl)phenyl]sulfonyl}amino)piperidine-1-carboxylate] registered an IC50 at SFRP-1 [1] of 4000 nM. Further, on SFRP-1 [2], the EC50 amounted to 2420 nM and the fold induction at 10 µM stood at 1.9.

Take `CC(C)c1ccc(S(=O)(=O)c2ccccc2)cc1S(=O)(=O)NC1CCN(C(=O)OC(C)(C)C)CC1` [Example 912, tert-butyl 4-({[2-isopropyl-5-(phenylsulfonyl)phenyl]sulfonyl}amino)piperidine-1-carboxylate]: on SFRP-1 [1], the IC50 is 2100 nM. Also, on SFRP-1 [2], the EC50 came to 1010 nM and the fold induction at 10 µM was 2.4.

On to `O=S(=O)(NCCC1CCCN1)c1cc(S(=O)(=O)c2ccccc2)ccc1C(F)(F)F` (stereo not shown) [Example 913, 5-(phenylsulfonyl)-N-(2-pyrrolidin-2-ylethyl)-2-(trifluoromethyl)benzenesulfonamide], for which, at SFRP-1 [1], the IC50 was 3000 nM. Also, on SFRP-1 [2], a half-maximal effect (EC50) was put at 7010 nM and the fold induction at 10 µM came to 3.1.

Turning to `O=S(=O)(NC1CCN(S(=O)(=O)c2ccc(O)cc2)CC1)c1cc(S(=O)(=O)c2ccccc2)ccc1C(F)(F)F` [Example 914, N-{1-[(4-hydroxyphenyl)sulfonyl]piperidin-4-yl}-5-(phenylsulfonyl)-2-(trifluoromethyl)benzenesulfonamide], the IC50 at SFRP-1 [1] worked out at 80 nM. Further, on SFRP-1 [2], the response was half-maximal at 541 nM (EC50) and the fold induction at 10 µM was 4.5.

On to `O=C(O)CN1CCCC1CCNS(=O)(=O)c1cc(S(=O)(=O)c2ccccc2)ccc1C(F)(F)F` (stereo not shown) [Example 918, {2-[2-({[5-(phenylsulfonyl)-2-(trifluoromethyl)phenyl]sulfonyl}amino)ethyl]pyrrolidin-1-yl}acetic acid], for which the IC50 on SFRP-1 [1] was determined as 4000 nM. Moreover, at SFRP-1 [2], the concentration giving a half-maximal response (EC50) was 2980 nM and the fold induction at 10 µM stood at 1.6.

The compound `O=C(O)CCC(=O)N1CCCC1CCNS(=O)(=O)c1cc(S(=O)(=O)c2ccccc2)ccc1C(F)(F)F` (stereo not shown) [Example 919, 4-oxo-4-{2-[2-({[5-(phenylsulfonyl)-2-(trifluoromethyl)phenyl]sulfonyl}amino)ethyl]pyrrolidin-1-yl}butanoic acid] came in with an IC50 at SFRP-1 [1] of 1400 nM. Further, on SFRP-1 [2], the EC50 came to 5260 nM and the fold induction at 10 µM was determined as 1.6.

Take `O=C(O)c1cccc(S(=O)(=O)N2CCCC2CCNS(=O)(=O)c2cc(S(=O)(=O)c3ccccc3)ccc2C(F)(F)F)c1` (stereo not shown) [Example 920, 3-({2-[2-({[5-(phenylsulfonyl)-2-(trifluoromethyl)phenyl]sulfonyl}amino)ethyl]pyrrolidin-1-yl)sulfonyl)benzoic acid]: at SFRP-1 [1], the IC50 was found to be 280 nM. Also, at SFRP-1 [2], the EC50 turned out to be 1810 nM and the fold induction at 10 µM stood at 2.2.

`CCc1ccc(S(=O)(=O)c2ccccc2)cc1S(=O)(=O)NC1CCNCC1` [Example 921, 2-ethyl-5-(phenylsulfonyl)-N-piperidin-4-ylbenzenesulfonamide] came in with an IC50 on SFRP-1 [1] of 4000 nM. Besides, on SFRP-1 [2], the EC50 stood at 2360 nM and the fold induction at 10 µM came to 2.5.

On to `Cc1cc(C)c(S(=O)(=O)c2ccccc2)cc1S(=O)(=O)NC1CCNCC1` [Example 923, 2,4-dimethyl-5-(phenylsulfonyl)-N-piperidin-4-ylbenzenesulfonamide], for which, on SFRP-1 [1], the IC50 came to 10000 nM. Also, at SFRP-1 [2], the EC50 was determined as 1870 nM and the fold induction at 10 µM is 2.4.

On to `CC(C)c1ccc(S(=O)(=O)c2ccccc2)cc1S(=O)(=O)NC1CCNCC1` [Example 924, 2-isopropyl-5-(phenylsulfonyl)-N-piperidin-4-ylbenzenesulfonamide], for which the IC50 at SFRP-1 [1] is 1800 nM. At SFRP-1 [2], the midpoint of the response, the EC50, lay at 1920 nM and the fold induction at 10 µM was 2.5.

The compound `CCCc1ccc(S(=O)(=O)c2ccccc2)cc1S(=O)(=O)NC1CCNCC1` [Example 925, 5-(phenylsulfonyl)-N-piperidin-4-yl-2-propylbenzenesulfonamide] came in with a concentration for half-maximal inhibition (IC50) on SFRP-1 [1] of 8000 nM. For the same compound, at SFRP-1 [2], it took 2150 nM to reach a half-maximal effect (EC50) and the fold induction at 10 µM was 3.

Take `CN(CCNS(=O)(=O)c1cc(S(=O)(=O)c2ccccc2)ccc1C(F)(F)F)C(=O)N[C@H]1CCN(C(=O)OC(C)(C)C)C1` [Example 926, tert-butyl (3S)-3-[({methyl[2-({[5-(phenylsulfonyl)-2-(trifluoromethyl)phenyl]sulfonyl}amino)ethyl]amino}carbonyl)amino]pyrrolidine-1-carboxylate]: the IC50 on SFRP-1 [1] was 500 nM. Further, on SFRP-1 [2], the EC50 came to 1360 nM and the fold induction at 10 µM worked out at 3.6.
